Data taken from the supplement of paper PMC10307832.

Tests used:
Assay in all cases: relative viability (nuclei count vs DMSO), 5 days (fraction); higher = more cells survive
[1] = tested on: NCI-H2126
How it was run: (§1)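 Nuclei were stained with Hoechst during a one-step fixation (final 0.05% Triton X-100, 1% formaldehyde, 1 ug/ml Hoechst) carried out 5 days after dosing, then counted on 4× images. The cells, lung cancer lines in 1536-well plates, had been dosed by pin tool the day after seeding with one drug alone or a fixed anchor-drug dose plus five library-drug doses (not always all listed) in √10 steps. Relative viability is the nuclei count in treated wells divided by that in vehicle wells, and each value is the median of duplicate plates.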

[2] = tested on: NCI-H1666
How it was run: as §1

[3] = tested on: LCLC-103H
How it was run: as §1

[4] = tested on: NCI-H2405
How it was run: as §1

[5] = tested on: NCI-H2342
How it was run: as §1

[6] = tested on: NCI-H322M
How it was run: as §1

[7] = tested on: SW 1573
How it was run: as §1

[8] = tested on: EMC-BAC-2
How it was run: as §1

[9] = tested on: SW 900
How it was run: as §1

[10] = tested on: HCC-827
How it was run: as §1

[11] = tested on: EPLC-272H
How it was run: as §1

[12] = tested on: LK-2
How it was run: as §1

[13] = tested on: PC-14
How it was run: as §1

[14] = tested on: NCI-H23
How it was run: as §1

[15] = tested on: ChaGo-K-1
How it was run: as §1

[16] = tested on: SK-LU-1
How it was run: as §1

[17] = tested on: RERF-LC-KJ
How it was run: as §1

[18] = tested on: NCI-H1975
How it was run: as §1

[19] = tested on: EKVX
How it was run: as §1

[20] = tested on: LU99A
How it was run: as §1

[21] = tested on: HCC-78
How it was run: as §1

Work on `Nc1ccn([C@@H]2O[C@H](CO)[C@@H](O)[C@@H]2O)c(=O)n1` [Cytarabine] + Nc1ncn([C@H]2C[C@H](O)[C@@H](CO)O2)c(=O)n1 [Decitabine] (partner 2 µM) yielded a relative viability ([1]; first compound 0.005 µM) of 0.597, a relative viability ([1]; first compound 0.01581 µM) of 0.518 and a relative viability ([1]; first compound 0.05 µM) of 0.514. It also gave a relative viability ([1]; first compound 0.1581 µM) of 0.457, a relative viability ([1]; first compound 0.5 µM) of 0.429 and a relative viability ([2]; first compound 0.005 µM) of 0.73. It also gave a relative viability ([2]; first compound 0.01581 µM) of 0.633, a relative viability ([2]; first compound 0.05 µM) of 0.543 and a relative viability ([2]; first compound 0.1581 µM) of 0.523. For the same compound, the relative viability ([2]; first compound 0.5 µM) was 0.455, the relative viability ([3]; first compound 0.005 µM) was 0.71 and the relative viability ([3]; first compound 0.01581 µM) was 0.734. The relative viability ([3]; first compound 0.05 µM) was 0.73, the relative viability ([3]; first compound 0.1581 µM) was 0.751 and the relative viability ([3]; first compound 0.5 µM) was 0.724. It also gave a relative viability ([4]; first compound 0.005 µM) of 0.666, a relative viability ([4]; first compound 0.01581 µM) of 0.569 and a relative viability ([4]; first compound 0.05 µM) of 0.503. For the same compound, the relative viability ([4]; first compound 0.1581 µM) was 0.342, the relative viability ([4]; first compound 0.5 µM) was 0.321 and the relative viability ([5]; first compound 0.005 µM) was 0.712. The relative viability ([5]; first compound 0.01581 µM) was 0.702, the relative viability ([5]; first compound 0.05 µM) was 0.7 and the relative viability ([5]; first compound 0.1581 µM) was 0.482. The relative viability ([5]; first compound 0.5 µM) was 0.483, the relative viability ([6]; first compound 0.005 µM) was 0.687 and the relative viability ([6]; first compound 0.01581 µM) was 0.608. For the same compound, the relative viability ([6]; first compound 0.05 µM) was 0.472, the relative viability ([6]; first compound 0.1581 µM) was 0.472 and the relative viability ([6]; first compound 0.5 µM) was 0.448. It also gave a relative viability ([7]; first compound 0.005 µM) of 0.347, a relative viability ([7]; first compound 0.01581 µM) of 0.184 and a relative viability ([7]; first compound 0.05 µM) of 0.247. For the same compound, the relative viability ([7]; first compound 0.1581 µM) was 0.121, the relative viability ([7]; first compound 0.5 µM) was 0.083 and the relative viability ([8]; first compound 0.005 µM) was 0.943. It also gave a relative viability ([8]; first compound 0.01581 µM) of 0.836, a relative viability ([8]; first compound 0.05 µM) of 0.597 and a relative viability ([8]; first compound 0.1581 µM) of 0.315. It also gave a relative viability ([8]; first compound 0.5 µM) of 0.332, a relative viability ([9]; first compound 0.005 µM) of 0.384 and a relative viability ([9]; first compound 0.01581 µM) of 0.344. It also gave a relative viability ([9]; first compound 0.05 µM) of 0.325, a relative viability ([9]; first compound 0.1581 µM) of 0.199 and a relative viability ([9]; first compound 0.5 µM) of 0.287. The relative viability ([10]; first compound 0.005 µM) was 0.232, the relative viability ([10]; first compound 0.01581 µM) was 0.239 and the relative viability ([10]; first compound 0.05 µM) was 0.182. For the same compound, the relative viability ([10]; first compound 0.1581 µM) was 0.152, the relative viability ([10]; first compound 0.5 µM) was 0.167 and the relative viability ([11]; first compound 0.005 µM) was 0.403. The relative viability ([11]; first compound 0.01581 µM) was 0.358, the relative viability ([11]; first compound 0.05 µM) was 0.346 and the relative viability ([11]; first compound 0.1581 µM) was 0.224. For the same compound, the relative viability ([11]; first compound 0.5 µM) was 0.247, the relative viability ([12]; first compound 0.005 µM) was 0.234 and the relative viability ([12]; first compound 0.01581 µM) was 0.249. It also gave a relative viability ([12]; first compound 0.05 µM) of 0.15, a relative viability ([12]; first compound 0.1581 µM) of 0.0989 and a relative viability ([12]; first compound 0.5 µM) of 0.132. It also gave a relative viability ([13]; first compound 0.005 µM) of 0.161, a relative viability ([13]; first compound 0.01581 µM) of 0.0896 and a relative viability ([13]; first compound 0.05 µM) of 0.114. The relative viability ([13]; first compound 0.1581 µM) was 0.0408, the relative viability ([13]; first compound 0.5 µM) was 0.0434 and the relative viability ([14]; first compound 0.005 µM) was 0.296. It also gave a relative viability ([14]; first compound 0.01581 µM) of 0.267, a relative viability ([14]; first compound 0.05 µM) of 0.274 and a relative viability ([14]; first compound 0.1581 µM) of 0.195. For the same compound, the relative viability ([14]; first compound 0.5 µM) was 0.193, the relative viability ([15]; first compound 0.005 µM) was 0.475 and the relative viability ([15]; first compound 0.01581 µM) was 0.413. For the same compound, the relative viability ([15]; first compound 0.05 µM) was 0.339, the relative viability ([15]; first compound 0.1581 µM) was 0.252 and the relative viability ([15]; first compound 0.5 µM) was 0.225. The relative viability ([16]; first compound 0.005 µM) was 0.526, the relative viability ([16]; first compound 0.01581 µM) was 0.565 and the relative viability ([16]; first compound 0.05 µM) was 0.524. It also gave a relative viability ([16]; first compound 0.1581 µM) of 0.462, a relative viability ([16]; first compound 0.5 µM) of 0.372 and a relative viability ([17]; first compound 0.005 µM) of 0.677. The relative viability ([17]; first compound 0.01581 µM) was 0.568, the relative viability ([17]; first compound 0.05 µM) was 0.475 and the relative viability ([17]; first compound 0.1581 µM) was 0.342. For the same compound, the relative viability ([17]; first compound 0.5 µM) was 0.29, the relative viability ([18]; first compound 0.005 µM) was 0.336 and the relative viability ([18]; first compound 0.01581 µM) was 0.353. For the same compound, the relative viability ([18]; first compound 0.05 µM) was 0.562, the relative viability ([18]; first compound 0.1581 µM) was 0.271 and the relative viability ([18]; first compound 0.5 µM) was 0.257. It also gave a relative viability ([19]; first compound 0.005 µM) of 0.485, a relative viability ([19]; first compound 0.01581 µM) of 0.282 and a relative viability ([19]; first compound 0.05 µM) of 0.259. The relative viability ([19]; first compound 0.5 µM) was 0.184, the relative viability ([20]; first compound 0.005 µM) was 0.863 and the relative viability ([20]; first compound 0.01581 µM) was 0.781. For the same compound, the relative viability ([20]; first compound 0.05 µM) was 0.93, the relative viability ([20]; first compound 0.1581 µM) was 0.925 and the relative viability ([20]; first compound 0.5 µM) was 0.823. It also gave a relative viability ([21]; first compound 0.005 µM) of 0.715, a relative viability ([21]; first compound 0.01581 µM) of 0.668 and a relative viability ([21]; first compound 0.05 µM) of 0.587. It also gave a relative viability ([21]; first compound 0.1581 µM) of 0.492 and a relative viability ([21]; first compound 0.5 µM) of 0.44.
